According to publication PMC10590383, “Repurposing conformational changes in ANL superfamily enzymes to rapidly generate biosensors for organic and amino acids” (Nature Communications, 2023):

Experiment: pH stability of […]-Phe3 (dose–response and fluorescence intensity at pH 6.5, 7.5, 8.5)
Format: biochemical
Details: for fluorescence response of GECFINDER, AVE of 3 repeats: Supplementary Fig. 3 e; for fluorescence intensity, AVE of 3 repeats: Supplementary Fig. 3 d, 100 μM Phe
Description: As cpEGFP is sensitive to pH, we conducted a dose-response curve and fluorescence intensity analysis of […]-Phe3 at varying pH levels. […] In addition, we expanded the range of ligand-binding domains (LBDs) applicable to […] and attempted optimization of insertion sites for cpEGFP with limited success. Please refer to Supplemental Note 1 for detailed information.
The study conducted dose–response curve, substrate specificity, and fluorescent spectrum analyses in 100-mM Tris buffer (pH = 7.5), while pH stability experiments were performed in 100-mM Tris buffer at three different pH values (6.5, 7.5, and 8.5) at room temperature. […] protein at a concentration of 0.75 μM, various small molecule concentrations, 1 mM ATP, and 2.5 mM MgCl2 were used in the experiments. Fluorescent signals were detected using a Microplate Reader (Synergy H4, Bio Tek) at an excitation/emission wavelength of 460 nm/510 nm or 480 nm/510 nm. The dose-response curve was determined immediately after the addition of the analyte. The total duration of the measurement was 15 min, with readings taken at one-minute intervals. The dose-response curve was plotted using the fluorescence values obtained after achieving stability in the fluorescence signal. The dose-response curves were fitted using the logistic model LOGISTIC5 available in Origin 2021, which could provide a more adequate fit to asymmetric dose-response data[62],[63]. Excitation spectra were scanned from 300 to 540 nm with a step size of 5 nm, and the emission wavelength was set to 560 nm. Emission spectra were scanned from 470 to 700 nm with a step size of 5 nm, and the excitation wavelength was set to 450 nm. The thermal stability of […] was analyzed using the UNcle multifunctional protein stability analysis system. Measurements were performed in 20 mM MOPS buffer with 2 mM DTT at a sample concentration of 1 mg/mL. Absolute fluorescence quantum yields were measured using an absolute photoluminescence quantum yield spectrometer (FS5, Edinburgh). […]
β-P he. […]
All data shown are mean s ± S.D . (n =3 biologically inde pendent samples). Source
data are provided as a Source Data file.
(also on this page, place not known: 10210-210-3 Normalized Normalized […]-Leu3 10-4 10⁵ 2.5 Normalized ΔF/F 0 AlaAr As p As […]Pr SerThr ValTrpTyr Ph R-β-Ph β-Ph e 2.5Normalized ΔF/F 0 Substrate 100μM 100μM 100μM Fluorescence ...K ...N GrsA-PheA PpsA-GluA -QSVF- 10⁰ 10⁵ […]-Ile(VF-QS) Normalized ΔF/F 0 (μM) 0mM 0.75mM His 12×10³Intensity f g Substrate specificity engineering insertion optimization […]. Dose–response purified […]-Leu2 increasing concentrations normalized ΔF/F0 […]-SβF acids R/S- β-Phe. concentrations substrates Fluorescence purified […]-Phe3 different control fluorescence substrate added. response purified […]-Phe3 increasing concentrations different junction domain Dose–response curve purified […]-Ile (VF-QS) increasing concentrations Normalized ΔF/F0 increased after excitation).h, Difference fluorescence intensity […]-His (VF-QS) presence histidine compared control means S.D. (n=3 independent) […]

In the case of `N[C@@H](Cc1ccccc1)C(=O)O` [Phe], the “fluorescence response of GECFINDER, AVE of 3 repeats” value (from here on “fluorescence response of GECFINDER”) (pH6.5, Phe 0.001 μM) is reported as -5.5222e-17, the “fluorescence response of GECFINDER” value (pH6.5, Phe 0.005 μM) is reported as 0.01941 and the “fluorescence response of GECFINDER” value (pH6.5, Phe 0.01 μM) is reported as 0.04517. For the same compound, the “fluorescence response of GECFINDER” value (pH6.5, Phe 0.05 μM) was 0.1259, the “fluorescence response of GECFINDER” value (pH6.5, Phe 0.1 μM) was 0.2201 and the “fluorescence response of GECFINDER” value (pH6.5, Phe 0.5 μM) was 0.7727. The “fluorescence response of GECFINDER” value (pH6.5, Phe 1 μM) was 1.198, the “fluorescence response of GECFINDER” value (pH6.5, Phe 5 μM) was 2.235 and the “fluorescence response of GECFINDER” value (pH6.5, Phe 10 μM) was 2.5727. The “fluorescence response of GECFINDER” value (pH6.5, Phe 25 μM) was 2.94, the “fluorescence response of GECFINDER” value (pH6.5, Phe 50 μM) was 3.093 and the “fluorescence response of GECFINDER” value (pH6.5, Phe 100 μM) was 3.166. For the same compound, the “fluorescence response of GECFINDER” value (pH7.5, Phe 0.001 μM) was 0, the “fluorescence response of GECFINDER” value (pH7.5, Phe 0.005 μM) was 0.04668 and the “fluorescence response of GECFINDER” value (pH7.5, Phe 0.01 μM) was 0.05356. For the same compound, the “fluorescence response of GECFINDER” value (pH7.5, Phe 0.05 μM) was 0.1413, the “fluorescence response of GECFINDER” value (pH7.5, Phe 0.1 μM) was 0.2634 and the “fluorescence response of GECFINDER” value (pH7.5, Phe 0.5 μM) was 0.9215. The “fluorescence response of GECFINDER” value (pH7.5, Phe 1 μM) was 1.384, the “fluorescence response of GECFINDER” value (pH7.5, Phe 5 μM) was 2.412 and the “fluorescence response of GECFINDER” value (pH7.5, Phe 10 μM) was 2.788. For the same compound, the “fluorescence response of GECFINDER” value (pH7.5, Phe 25 μM) was 3.108, the “fluorescence response of GECFINDER” value (pH7.5, Phe 50 μM) was 3.25 and the “fluorescence response of GECFINDER” value (pH7.5, Phe 100 μM) was 3.385. For the same compound, the “fluorescence response of GECFINDER” value (pH8.5, Phe 0.001 μM) was 5.725e-17, the “fluorescence response of GECFINDER” value (pH8.5, Phe 0.005 μM) was 0.003084 and the “fluorescence response of GECFINDER” value (pH8.5, Phe 0.01 μM) was 0.009629. The “fluorescence response of GECFINDER” value (pH8.5, Phe 0.05 μM) was 0.04022, the “fluorescence response of GECFINDER” value (pH8.5, Phe 0.1 μM) was 0.0788 and the “fluorescence response of GECFINDER” value (pH8.5, Phe 0.5 μM) was 0.5458. The “fluorescence response of GECFINDER” value (pH8.5, Phe 1 μM) was 0.9288, the “fluorescence response of GECFINDER” value (pH8.5, Phe 5 μM) was 1.837 and the “fluorescence response of GECFINDER” value (pH8.5, Phe 10 μM) was 2.121. The “fluorescence response of GECFINDER” value (pH8.5, Phe 25 μM) was 2.449, the “fluorescence response of GECFINDER” value (pH8.5, Phe 50 μM) was 2.595 and the “fluorescence response of GECFINDER” value (pH8.5, Phe 100 μM) was 2.661. For the same compound, the “fluorescence intensity, AVE of 3 repeats” value (pH6.5) was 11375, the “fluorescence intensity, AVE of 3 repeats” value (pH7.5) was 18474.7 and the “fluorescence intensity, AVE of 3 repeats” value (pH8.5) was 19389.
